Row | Compound | melting point
1 | Brc1cc(Br)c(Oc2ccc(Br)c(Br)c2)c(Br)c1 | 86 to 87 °C
2 | O=C(O)C(c1ccccc1)C1CCCCC1 (stereo not drawn) | 148 to 151 °C
3 | CN(C)c1cccc2c(S(=O)(=O)NC3CC(C)(C)N(O)C3(C)C)cccc12 (stereo not drawn) | 157 to 161 °C
4 | O=C1C(=Cc2ccc(N(CCCl)CCCl)cc2)SC(=S)N1CN(CCCl)CCCl | 106 °C
5 | c1cc(CCc2ccncc2)ccn1 | 107 to 113 °C
6 | O=C(CC(NC(=O)OCC1c2ccccc2-c2ccccc21)C(=O)O)NC(c1ccccc1)(c1ccccc1)c1ccccc1 (stereo not drawn) | 205 °C
7 | O=C1C(=C2C=Cc3ccc(O)cc3N2)C(=O)c2ccccc21 | 266 to 267 °C
8 | CC(C)(C)c1cc(C(C)(C)C)c(N=O)c(C(C)(C)C)c1 | 170 to 173 °C
9 | CC1CCCS1 (stereo not drawn) | -101 °C
10 | CC(=NC#N)N(C)Cc1ccc(Cl)nc1 | 98.9 °C
11 | O=[N+]([O-])c1cc(C(F)(F)F)ccc1N1CCCC1 | 54 to 56 °C
12 | FC(Cl)C(F)(F)C(F)(F)Cl (stereo not drawn) | -97 °C
13 | CC(=O)OC1(C(C)=O)CCC2C3CC(C)C4=CC(=O)CCC4(C)C3CCC21C (stereo not drawn) | 206 °C
14 | CCCCF | -134 °C
15 | O=C(O)c1cc(F)c(F)cc1[N+](=O)[O-] | 165 °C
16 | Fc1c(F)c(Br)c(F)c(F)c1Br | 78 to 81 °C
17 | CCOC(=O)CCC(=O)CC1(O)C2(Cl)C3(Cl)C4(Cl)C(Cl)(Cl)C5(Cl)C3(Cl)C1(Cl)C5(Cl)C42Cl (stereo not drawn) | 91 °C
18 | Fc1ccc(CBr)c(Cl)c1 | 37 °C
19 | CNC(=O)CSP(=O)(OC)OC | -28 °C
20 | Cc1cc(O)c(C)c(C)c1O | 173 °C
21 | Cc1c(Cl)c(Cl)cc(Cl)c1Cl | 93.5 °C
22 | FC(F)(F)c1ccc(-n2cc[nH]c2=S)cc1 | 194 to 196 °C
23 | CN1CC(Br)C(=O)NC1=O (stereo not drawn) | 153 to 155 °C

Row | Compound | melting point
24 | C=CCn1c(SC)nc2nc(SC)n(C)c2c1=O | 111 to 113 °C
25 | CCOC(=O)CCCCCCCCCCCCC(=O)OCC | 28 to 31 °C
26 | C=C[Si](c1ccccc1)(c1ccccc1)c1ccccc1 | 63 to 70 °C
27 | N#CCC(N)=C(C#N)C#N | 172 °C
28 | CNC(=O)Oc1cc(C)c(C)c(C)c1 | 110 °C
29 | N=C1C=C(NC(=O)c2ccccc2)/C(=N/C(=O)c2ccccc2)C=C1NC(=O)c1ccccc1 | > 330 °C
30 | C=C(C)C1CC=C(C(=O)O)CC1 (stereo not drawn) | 129 to 135 °C
31 | O=C(O)C[C@H](C(=O)O)c1ccccc1 | 173 to 176 °C
32 | Clc1nc(Br)[nH]c1Cl | 215 to 216 °C
33 | C#C[C@@]1(O)CC[C@@H]2[C@@H]3CC[C@@H]4CC(=O)CC[C@]4(C)[C@H]3CC[C@@]21C | 220 to 221 °C
34 | CC(C=CC=C(C)C=CC1=C(C)CCCC1(C)C)=CC=O | 63 °C
35 | Brc1ccc2c(c1)Oc1ccccc1O2 | 90 °C
36 | Fc1cc(F)c(Br)c(F)c1 | 4 °C
37 | CCCCCCCCC(CCCCCCCC)C(=O)O | 38.5 °C
38 | CCN(CC)C(=O)C(Cl)(Cl)Cl | 27 °C
39 | OC(c1ccccc1)c1c(F)c(F)c(F)c(F)c1F (stereo not drawn) | 54 to 57 °C
40 | O=C1CCN2C(=O)c3ccccc3CC2C1 (stereo not drawn) | 126 °C
41 | NC(=O)C#CC#CC#CCO | 140 °C
42 | C=CN1C(=O)c2ccccc2C1=O | 86 °C
43 | CCCCCCCCCCCCCCCC(C)CC (stereo not drawn) | 1 °C
44 | CC(C)C1=C(O)C(=O)C2=C(C1=O)C(O)CC1C(C)(C)CCCC21C (stereo not drawn) | 214 °C
45 | O=C(c1ccccc1)N1CCNCC1 | 63 to 64 °C
46 | CCCCCCCCCCCCCCCC=O | 35 °C

Row | Compound | melting point
47 | O=[N+]([O-])c1cccc(F)c1CBr | 52 °C
48 | O=CCCCC=O | -6 °C
49 | CC1(C)OC2C(CO)OC(n3cnc4c(N)ncnc43)C2O1 (stereo not drawn) | 221 to 222 °C
50 | c1ccc(-c2oc(-c3ccccc3)c(-c3ccccc3)c2-c2ccccc2)cc1 | 175 °C
51 | O=C1C(C(O)c2ccc(Cl)cc2Cl)C(C(F)(F)F)=NN1c1ccccc1 (stereo not drawn) | 249 °C
52 | CCCCCCCCCC(O)CC (stereo not drawn) | 25 °C
53 | O=P1(NCCCl)OCCCN1CCCl (stereo not drawn) | 43.4 °C
54 | Cc1cc(N=Nc2ccc(N)cc2)c(C(C)C)cc1N=Nc1ccc(N)cc1 | 177 °C
55 | CC(C)(C)NCC(O)COc1nsnc1N1CCOCC1 (stereo not drawn) | 202 °C
56 | CCOC(=O)C(C)OC(=O)c1cc(Oc2ccc(C(F)(F)F)cc2Cl)ccc1[N+](=O)[O-] (stereo not drawn) | 45 °C
57 | CCCCCCCCOC=O | -39.1 °C
58 | Nc1nnc(C(F)(F)F)s1 | 224 °C
59 | S=C=Nc1ccc(N2CCOCC2)cc1 | 84 to 85 °C
60 | Fc1c(F)c(F)c(P(c2ccccc2)c2ccccc2)c(F)c1F | 71 °C
61 | N#Cc1sc(Br)c2c1OCCO2 | 149 to 150 °C
62 | O=C1c2ccccc2-c2ccc3c4c(ccc1c24)-c1ccccc1C3=O | 385 °C
63 | O=C1c2ccccc2-c2ccc3c4ccc5c6c(ccc(c7ccc1c2c73)c64)C(=O)c1ccccc1-5 | 492 °C
64 | C=C(C)C(N)=O | 110 °C
65 | COc1ccc(C(=O)c2cccc(C)c2)cc1C | 62.3 °C
66 | CC(CCC(/C=N/NC(N)=O)C(C)C)C(=O)O (stereo not drawn) | 152 °C
67 | Nc1ccc(S(=O)(=O)N2CCCCC2)cc1 | 169 to 170 °C
68 | CC(=O)C1(O)CCC2(C)C(CCC3C2CCC2(C)C3CCC23OCCO3)C1 (stereo not drawn) | 182 to 190 °C
69 | CC(=O)OC1CCC2(C)C(CCC3C4CCC(=O)C4(C)CCC32)C1 (stereo not drawn) | 138 °C

Other lines, results leading:

Row | melting point | Compound
70 | 8.5 °C | CCCCCCCCCCCC(=O)OCc1ccccc1
71 | 50 °C | COc1cccc(C)c1[N+](=O)[O-]
72 | 78 °C | CC(C)(C)CC(C)(C)c1ccc(O)c(Cc2ccc(Cl)cc2Cl)c1
73 | 157 °C | O=C(NC1Cc2ccccc21)c1ccccc1 (stereo not drawn)
74 | 230 °C | CCCOc1ccc2[nH]c(NC(=O)OC)nc2c1
75 | 144 °C | O=C(O)Cc1cccnc1
76 | 48 to 50 °C | Cc1ccc(-n2cccc2C=O)cc1
77 | 141 °C | CCOC(=O)CSc1sc(C(=O)OCC)c(N)c1C#N
78 | 79.2 °C | CCOC(=O)Cn1c(=O)sc2cccc(Cl)c21
79 | 84 °C | Nc1ncc(Cl)cc1Br
80 | 131 °C | CCCCNC(=O)NS(=O)(=O)c1ccccc1
81 | 124 to 129 °C | CCOC(=O)C=P(c1ccccc1)(c1ccccc1)c1ccccc1
82 | 143 °C | COC(=O)CC1Sc2ccccc2NC1=O (stereo not drawn)
83 | 136 °C | CC(C)(C)c1cnc(C(=O)Nc2cc(C(F)(F)F)cc(C(F)(F)F)c2)cn1
84 | 128 °C | Cc1cc(=O)n(-c2ccccc2)[nH]1
85 | 122 °C | Oc1ccc(OCc2ccccc2)cc1
86 | 238 °C | O=C(O)Cc1ccc2c(c1)NC(=O)C2
87 | 228 °C | Cc1cccc2c1/C(=N/Nc1ccc([N+](=O)[O-])cc1[N+](=O)[O-])C2
88 | 56 to 59 °C | CC(=O)c1c(-c2ccc(Cl)cc2)noc1C
89 | 144 °C | Cc1ccccc1N/N=C(\C#N)c1nc(-c2ccccc2)cs1

Row | melting point | Compound
90 | 175 to 177 °C | O=[N+]([O-])c1ccc(-c2nnc(S)s2)o1
91 | 37 °C | CCOC(=O)C(O)c1ccccc1 (racemic)
92 | 108 to 109 °C | O=Cc1ccc(-c2ncccn2)cc1
93 | 92 to 97 °C | Fc1ccc(C(Br)Br)c(C(Br)Br)c1
94 | 84 to 86 °C | O=C(Cl)c1cccc2ccsc12
95 | 110 °C | Cc1ccc(S(=O)(=O)Nc2ccccc2C)cc1
96 | 201 to 203 °C | COn1c(C)c(C(C)=O)c2c3nonc3ccc21
97 | 98 °C | CCOc1ccc(-c2nnc3n2NC(c2ccc([N+](=O)[O-])cc2)S3)cc1 (stereo not drawn)
98 | 290 °C | Cn1c(=O)c(C2=NNC(=O)C2=CNc2ccc(Cl)cc2)c(O)c2ccccc21
99 | 82 °C | CC(C)(C)NCC(O)COc1cc(Cl)ccc1Cl (stereo not drawn)
100 | 148 °C | O=C(CCl)c1cc(C(=O)CCl)c([N+](=O)[O-])cc1[N+](=O)[O-]
101 | 149 to 150 °C | Cc1nc(Br)sc1C(=O)O
102 | 198 °C | CCOc1ccc(C(=O)O)cc1
103 | 99 to 102 °C | O=C(Cl)c1cc2cc(Br)ccc2s1
104 | 93 °C | COc1cc(C)cc(OC)c1C=O
105 | 57 to 60 °C | CCOC(=O)C1=C(N)CCC1
106 | -5.9 °C | CCCOC(=O)CCC(=O)OCCC
107 | 112 °C | Cc1nn(C)c(OCC(=O)c2ccccc2)c1C(=O)c1ccc(Cl)cc1Cl
108 | 134 to 136 °C | COc1cc(F)ccc1C(=O)O
109 | 77 to 78 °C | Cn1nc(-c2cccs2)cc1CN

Row | melting point | Compound
110 | 115 to 116 °C | O=Cc1cccc(Oc2ccccn2)c1
111 | 120 °C | COc1ccc2c(c1)CC1(CCC(=O)C(C(=O)O)C1)C2=O (stereo not drawn)
112 | 218 to 220 °C | Cc1n[nH]c2c(=O)n(Cc3ccc(Cl)cc3)c(C)nc12
113 | 75 to 77 °C | Cc1cc(C(=O)CC#N)c(C(F)(F)F)o1
114 | 107 to 109 °C | Cc1ccc(C(N)=O)cc1C
115 | 139 °C | Cc1ccc(C(=O)C=CC(=O)O)cc1
116 | 42 °C | COC(=O)c1ccc(Br)c(C)c1
117 | 216 °C | Nc1cc(C(=O)O)cc([N+](=O)[O-])c1
118 | 124 °C | CCc1oc2ccccc2c1C(=O)c1ccc(O)cc1
119 | -34 °C | CCOC(=O)c1ccccc1
120 | 110 °C | CC(C(=O)O)c1ccc(-c2ccccc2)c(F)c1 (stereo not drawn)
121 | 148 °C | COc1ccccc1N/N=C1\C(=O)N(CN2CCCCC2)N=C1C
122 | 141 °C | O=C(O)c1ccc(F)c(F)c1F
123 | 74 to 76 °C | OCc1ccc(N2CCOCC2)nc1
124 | 164 °C | O=C(C(=O)c1ccco1)c1ccco1
125 | 111 to 112 °C | COC(=O)c1cc(C)nn1C(=O)OC
126 | 55 °C | COCCCNc1nc(NCCCOC)nc(SC)n1
127 | 79.8 °C | Cc1ccc(Nc2ccc(C)cc2)cc1
128 | 46 to 48 °C | Cc1onc(-c2ccccc2)c1C(=O)CBr

From a melting point compilation (Tetko et al.)
